Experimental data published in US9144594B2, “Cathepsin L mediated diseases and associated methods and products” (University of Miami, priority 2005, dated 2015).
“Also recorded” adds a separate entry of the source.

Columns and labels:
podocytes = test: Scrape wound (wound healing) assay of podocytes; type: cell-based, mouse; details: pretreatment 24 h; untreated cells 31%
Method: Functionally, lipid raft-associated uPAR has been implicated in cell migration (21). The motility of cultured podocytes was analyzed to explore the consequences of increased uPAR expression in lipid rafts. First, podocyte cell lines were established with stable knock down of uPAR expression using siRNA. The efficiency of uPAR-siRNA was confirmed by both semi-quantitative RT-PCR (>90% inhibition) and Western blotting (>70%) (FIG. 12A). A modified multi-well Boyden chamber assay was used to assess the random migration of differentiated podocytes. […] To test whether this effect was mediated by uPAR, uPAR knock-down studies were performed by stably transfecting uPAR-siRNA into podocytes. […] The distance from the wound margin migrated by cells was related to the total distance of the scar and expressed as percentage closure 12 h after post-wound incubation. […]
To study the directional movement of podocytes, wound healing assay was performed. […] The cell migratory distance was calculated by averaging the distance from the wound edge to the DAPI-labeled nucleus of the maximally migrated cell in five distinct border zones. The percentage of closure was calculated as migratory distance from both sides versus initial wound track width.

cathepsin L = target: T1, cathepsin L (Homo sapiens, UniProt P07711); test: Processing of recombinant dynamin by purified CatL in vitro; type: biochemical
T1 construct: purchased Sigma, Saint Louis, Mo
Method: Reinheckel and colleges have developed the bioinformatics tool ‘PEPS’ (Prediction of Endopeptidase Substrates) to predict endopeptidase cleavage sites. By using PEPS, three putative cathepsin L sites within dynamin were identified (FIG. 4A). To assess whether cathepsin L could cleave dynamin at neutral pH 7.0, recombinant dynamin 1 was incubated with purified cathepsin L (Stressgene) and respective proteolytic fragments were determined using anti-dynamin antibodies that recognize N-terminal GTPase domain (Stressgene). […] The most prominent proteolytic fragment traveled with molecular weight of approximately 40 kD. […] Thus, self-assembly of dynamin:GTPγS protected from cathepsin L cleavage. The middle domain and the […] mediate dynamin self-assembly into higher order structures. Based on the 3D-structure of self-assembled dynamin determined by cry-EM, the middle and the GAP domains are localized within self-assembled dynamin and thus amino acid sequences situated within either of these domains are predicted to be inaccessible for cathepsin L. Since activity of cathepsin L at pH 7.0 was marginal if GTP was not added in the assay, in order to examine whether GTPγS and thus self-assembly can protect from cathepsin L cleavage in general, assays were performed at lower pHs. As expected, at pH 5.0 and 6.0 cathepsin L potently proteolyzed recombinant dynamin (FIG. 4E). […] Thus, generation of 40 kD fragment upon addition of GTP in the assay and protection of the cleavage by GTPγS are consistent with primary cleavage site for cathepsin L to be present within the middle domain.
GTP in vitro and in vivo. To further examine if proteolysis of dynamin by cytoplasmic CatL occurs during proteinuric kidney disease, it was examined whether purified dynamin is cleaved by CatL in vitro at neutral pH. The PEPS algorithm identified three putative CatL recognition motifs within dynamin (FIG. 19A): amino acids 55-59 (LPRGS; SEQ ID NO.28) within the GTPase domain, 354-359 (ELSGGA; SEQ ID NO.29) within the middle domain, and 614-618 (FLRAG; SEQ ID NO.30) within the pleckstrin-homology (PH) domain. […] The cleavage pattern obtained in vitro is almost identical to that observed in podocytes after addition of LPS (FIG. 18A, compare lanes 3 and 5). p40 is the predicted size of the N-terminal fragment after cleavage at the ELSGGA sequence (FIG. 19A; SEQ ID NO.29). Another fragment, p55, is observed in the absence of added protease (FIG. 19C, lane 1), likely during protein preparation. Thus, p55 is not a precursor of p40. Furthermore, incubation of dynamin with CatB generated p55 in a nucleotide-independent manner (FIG. 19F, lanes 2-4), whereas furin, another protease also found in podocytes in vivo, was unable to cleave dynamin (FIG. 19F, lanes 6-8). Thus, while p55 is produced by a number of proteases and thus represents a “hot spot” for proteolysis, p40 is generated by CatL only when dynamin is in the GTP-bound conformation.
At pH 5.0 and 6.0, CatL was highly reactive towards recombinant dynamin, even in the absence of GTP (FIG. 19D, lanes 2 and 4).
Recombinant dynamin was purified as described (Damke et al., 2001). 1 μg of dynamin (10 pmol) was diluted in buffer containing 200 mM NaCl, 10 mM HEPES pH 7.0, 2 mM EGTA, 1 mM MgCl2 and 1 mM DTT. When indicated 200 μM of GTP or 1 mM of GTPγS was added, and dynamin was allowed to bind nucleotides for 10 min on ice. Reaction was initiated by addition of 0.5 μl of purified CatL (S.A. 4.13 units/mg of protein from Sigma, Saint Louis, Mo.), and samples were placed at 37° C. in the water bath for 10 min. Total assay volume was 20 μl. Reaction was terminated with addition of E-64d inhibitor (Sigma, Saint Louis, Mo.), and sample buffer. For Western blot analysis 5 μl of the samples was run on 10% SDS-PAGE. When CatB (S.A. 3 units/mg of protein from Sigma, Saint Louis, Mo.) or recombinant human furin (from R&D Systems, Minneapolis, Minn.) were used, 2 μl of the enzymes were added in the assay.

lysosomes = test: Lysosomal leakage assay using Lucifer Yellow in podocytes; type: cell-based, mouse
Excerpt: Next the reason for the relocalization of CatL in LPS treated podocytes was examined. To examine the possibility of lysosomal leakage, the localization of Lucifer Yellow, a cellular dye that is readily taken up into lysosomes was examined.

[1] = tested on: dynamin-dynamin interactions; test: FLIM analysis of dynamin-dynamin interactions (self-assembly) in podocytes; type: cell-based, mouse; details: Table 4; donor GTPase-a488, acceptor Hudy1-a568; in ps
Method: In one embodiment the cell-based assay to monitor dynamin-dynamin interactions is performed on a cultured mouse podocyte cell line and the readout of dynamin self-assembly using fluorescence lifetime imaging microscopy (FLIM). FLIM is based on the fluorescence resonance energy transfer (FRET) between the donor and acceptor that shortens the lifetime of the donor if the acceptor distance is within ≈100 Å (10 nm). […] The assay is based on overexpressing dynamin in podocytes, and subsequently staining fixed cells with monoclonal anti-dynamin antibodies that have been conjugated with donor or acceptor florophores. In one embodiment of the invention, Alexa-488 is used as the donor florophore and Alexa-568 is used as the acceptor florophore. In yet another embodiment the donor florophore is dynamin conjugated enhanced-cyan fluorescence protein (ECFP) and the acceptor is dynamin conjugated enhanced yellow-fluorescence protein (EYFP). It will be appreciated by the person of ordinary skill in the art that numerous combinations of FRET donor and acceptors can be used, which are readily available and known. In one embodiment, the FLIM assay is carried out in COS cells and the donor can be selected from the list consisting of: ECFP-WT, ECFP-1690K, ECFP-K44A, ECFP-K694A, and the -acceptor can be selected from the list consisting of: EYFP, EYFP-WT, EYFP-K44A, EYFP-1690K, EYFP-K694A. In yet another embodiment the FLIM assay is performed in podocytes and the donor is GTPase-Alexa488 and the acceptor is selected from the list consisting of: DAM-Alexa568, GTPase-Alexa568, and Hudyl-Alexa568. Cells are stained by mixing both donor and acceptor florophores in equal amounts, and examining the spatially-restricted lifetime shortening in cells detects the localization of dynamin-dynamin interactions in cells. Since dynamin-dynamin interactions are vital for the function of the podocyte, it will be appreciated by the person of ordinary skill in the art that this assay can now be used to screen peptides, small molecules or drugs which can affect these molecular interactions. For example such molecules are cytocholasin D, jasplakinolide, colchisine, dynK44A, dynK694A, dynWT, dynI690K, dynR725A (SEQ ID NO.4), dynL356Q, G358V, (SEQ ID NO.3) any combination thereof, etc.
In order to test the hypothesis that self-assembly of dynamin was protecting its cathepsin L processing in cultured podocytes, dynamin self-assembly in live cells was examined using fluorescence lifetime imaging microscopy (FLIM). FLIM is based on the fluorescence resonance energy transfer (FRET) between the donor and the acceptor that shortens the lifetime of the donor if the acceptor distance is within ≈100 Å (10 nm). […] A FLIM-assay was developed that specifically detects dynamin self-assembly into the higher order structures in podocytes. The assay is based on overexpressing dynamin in podocytes, and subsequently staining fixed cells with monoclonal anti-dynamin antibodies that have been conjugated with either Alexa-488 (donor florophore) or Alexa-568 (acceptor florophore). Cells are stained by mixing both florophores in equal amounts, and examining lifetime of Alexa-488. […] Importantly, FRET only occurred in the vicinity of the membrane. […] Thus, both dominant activating mutants, dynK694A and dynR725A, are impaired for assembly into a supramolecular structures in podocytes under normal conditions. […] Loss of FRET measured FLIM correlates with the loss of p40 proteolytic fragment in cultured podocytes. And presence of p40 in cells expressing dynR725A under normal conditions correlates with the lack of dynR725A assembly detected by FLIM. The opposite is true for the dynWT; lack of p40 under control conditions when FLIM is present, and appearance of the p40 upon LPS treatment with no measurable FRET. […] Finally, proteolytic processing of dynamin after LPS treatment is also observed in vivo. […]

dynamin = test: Dynamin self-assembly, apparent affinity measured in vitro; type: biochemical
Excerpt: The fact that this significant decrease in the fluorescence lifetime of ECFP is statistically insignificant is due to high fluctuations of the lifetimes between different cells (high error bar in Table 3). This is most likely due to ability of dynK694A to overcome its assembly defect under certain circumstances as shown in vitro. The fact that ECFP-dynK694A has a faster lifetime than ECFP-dynI690K is in agreement with its less severe assembly defect measured in vitro (apparent affinity of dynK694A is ˜7-fold lower then dynWT, whereas it is unmeasurable for dynI690K).

T1 sequence (P07711 114-333, species assumed): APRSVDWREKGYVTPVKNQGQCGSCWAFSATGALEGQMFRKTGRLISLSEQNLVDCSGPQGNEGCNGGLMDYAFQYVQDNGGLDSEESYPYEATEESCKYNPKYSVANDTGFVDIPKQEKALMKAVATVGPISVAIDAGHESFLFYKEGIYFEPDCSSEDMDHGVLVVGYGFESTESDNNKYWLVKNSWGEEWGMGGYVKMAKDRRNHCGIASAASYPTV

CN(C)c1ncnc2c1ncn2[C@@H]1O[C@H](CO)[C@@H](N)[C@H]1O [PAN, puromycin aminonucleoside] was tested. Which “percentage closure 12 h after post-wound incubation” value (podocytes) did it give?
The value was 63%.

Which “cleavage of dynamin by cathepsin L, in words” value (cathepsin L; pH 7.0) does the source give for Nc1nc2c(ncn2[C@@H]2O[C@H](COP(=O)(O)OP(=O)(O)OP(=O)(O)O)[C@@H](O)[C@H]2O)c(=O)[nH]1 [GTP] here?
Its value is “resulted in significant cleavage of dynamin by cathepsin L; also recorded: resulted in the generation of a prominent proteolytic fragment”.

What does the source list for Nc1nc2c(ncn2[C@@H]2O[C@H](COP(=O)(O)OP(=O)(O)OP(O)(O)=S)[C@@H](O)[C@H]2O)c(=O)[nH]1 [GTPγS]?
cleavage of dynamin by cathepsin L, in words (cathepsin L; acidic pH (5.0 and 6.0)): completely inhibited; cleavage of dynamin by cathepsin L, in words (cathepsin L; acidic pH (5.0 and 6.0), listed as GTP7S): completely inhibited; cleavage of dynamin by cathepsin L, in words (cathepsin L; acidic pH (5.0 and 6.0), listed as GTPgammaS): protects from cathepsin L mediated cleavage; cleavage of dynamin by cathepsin L, in words (cathepsin L; pH 7.0): abolished dynamin cleavage by cathepsin L; also recorded: did not stimulate cleavage by CatL; cleavage of dynamin by cathepsin L, in words (cathepsin L; pH 7.0, listed as GTPgammaS): inhibited

CCCCCCCCCCCCC/C=C/[C@@H](O)[C@@H](N)CO [sphingosine] was tested. Which “lysosomal integrity (Lucifer Yellow), in words” value (lysosomes) did it give?
The value was “led to the expected lysosomal rupture”.

B1: dynI690K: dynamin mutant with defective higher order assembly of tetramers (protein)
chain: MGNRGMEDLIPLVNRLQDAFSAIGQNADLDLPQIAVVGGQSAGKSSVLENFVGRDFLPRGSGIVTRRPLVLQLVNATTEYAEFLHCKGKKFTDFEEVRLEIEAETDRVTGTNKGISPVPINLRVYSPHVLNLTLVDLPGMTKVPVGDQPPDIEFQIRDMLMQFVTKENCLILAVSPANSDLANSDALKVAKEVDPQGQRTIGVITKLDLMDEGTDARDVLENKLLPLRRGYIGVVNRSQKDIDGKKDITAALAAERKFFLSHPSYRHLADRMGTPYLQKVLNQQLTNHIRDTLPGLRNKLQSQLLSIEKEVEEYKNFRPDDPARKTKALLQMVQQFAVDFEKRIEGSGDQIDTYELSGGARINRIFHERFPFELVKMEFDEKELRREISYAIKNIHGIRTGLFTPDMAFETIVKKQVKKIREPCLKCVDMVISELISTVRQCTKKLQQYPRLREEMERIVTTHIREREGRTKEQVMLLIDIELAYMNTNHEDFIGFANAQQRSNQMNKKKTSGNQDEILVIRKGWLTINNIGIMKGGSKEYWFVLTAENLSWYKDDEEKEKKYMLSVDNLKLRDVEKGFMSSKHIFALFNTEQRNVYKDYRQLELACETQEEVDSWKASFLRAGVYPERVGDKEKASETEENGSDSFMHSMDPQLERQVETIRNLVDSYMAIVNKTVRDLMPKTIMHLMKNNTKEFIFSELLANLYSCGDQNTLMEESAEQAQRRDEMLRMYHALKEALSIIGDINTTTVSTPMPPPVDDSWLQVQSVPAGRRSPTSSPTPQRRAPAVPPARPGSRGPAPGPPPAGSALGGAPPVPSRPGASPDPFGPPPQVPSRPNRAPPGVPSRSGQASPSRPESPRPPFDL
What does the source list for B1?
Mean Lifetime (γ1) [1]: 2359 ± 120; apparent affinity for self-assembly, fold lower than dynWT (dynamin): unmeasurable
